How the values were obtained:
[1] = biological target: AP2-associated protein kinase 1 (Homo sapiens) (UniProt Q2M2I8)
[2] = biological target: Atypical kinase COQ8A, mitochondrial (Homo sapiens) (UniProt Q8NI60)
[3] = biological target: Aurora kinase A (Homo sapiens) (UniProt O14965)
[4] = biological target: Bone morphogenetic protein receptor type-2 (Homo sapiens) (UniProt Q13873)
[5] = biological target: Tyrosine-protein kinase BTK (Homo sapiens) (UniProt Q06187)
[6] = biological target: Cyclin-dependent kinase 11A (Homo sapiens) (UniProt Q9UQ88)
[7] = biological target: Cyclin-dependent kinase 13 (Homo sapiens) (UniProt Q14004)
[8] = biological target: Cyclin-dependent kinase 19 (Homo sapiens) (UniProt Q9BWU1)
[9] = biological target: Cyclin-dependent kinase 4 (Homo sapiens) (UniProt P11802)
[10] = biological target: Epithelial discoidin domain-containing receptor 1 (Homo sapiens) (UniProt Q08345)
[11] = biological target: Ephrin type-A receptor 8 (Homo sapiens) (UniProt P29322)
[12] = biological target: Mitogen-activated protein kinase 3 (Homo sapiens) (UniProt P27361)
[13] = biological target: Tyrosine-protein kinase Fgr (Homo sapiens) (UniProt P09769)
[14] = biological target: Receptor-type tyrosine-protein kinase FLT3 (Homo sapiens) (UniProt P36888)
[15] = biological target: Tyrosine-protein kinase Fyn (Homo sapiens) (UniProt P06241)
[16] = biological target: G protein-coupled receptor kinase 4 (Homo sapiens) (UniProt P32298)
[17] = biological target: Tyrosine-protein kinase JAK2 (Homo sapiens) (UniProt O60674)
[18] = tested on: Leucine-rich repeat serine/threonine-protein kinase 2 (Homo sapiens), Q5S007 [G2019S]
[19] = biological target: Microtubule-associated serine/threonine-protein kinase 1 (Homo sapiens) (UniProt Q9Y2H9)
[20] = biological target: Dual specificity mitogen-activated protein kinase kinase 5 (Homo sapiens) (UniProt Q13163)
[21] = tested on: Hepatocyte growth factor receptor (Homo sapiens), P08581 [M1250T]
[22] = biological target: MAP kinase-interacting serine/threonine-protein kinase 2 (Homo sapiens) (UniProt Q9HBH9)
[23] = biological target: Myosin-IIIb (Homo sapiens) (UniProt Q8WXR4)
[24] = biological target: Serine/threonine-protein kinase 38 (Homo sapiens) (UniProt Q15208)
[25] = biological target: Serine/threonine-protein kinase PAK 1 (Homo sapiens) (UniProt Q13153)
[26] = biological target: Cyclin-dependent kinase 16 (Homo sapiens) (UniProt Q00536)
[27] = biological target: Cyclin-dependent kinase 15 (Homo sapiens) (UniProt Q96Q40)
[28] = tested on: Phosphatidylinositol 4,5-bisphosphate 3-kinase catalytic subunit alpha isoform (Homo sapiens), P42336 [H1047Y]
[29] = biological target: Phosphatidylinositol 4,5-bisphosphate 3-kinase catalytic subunit gamma isoform (Homo sapiens) (UniProt P48736)
[30] = biological target: Serine/threonine-protein kinase RIO2 (Homo sapiens) (UniProt Q9BVS4)
[31] = biological target: Proto-oncogene tyrosine-protein kinase ROS (Homo sapiens) (UniProt P08922)
[32] = biological target: Ribosomal protein S6 kinase alpha-1 (Homo sapiens) (UniProt Q15418)
[33] = biological target: Ribosomal protein S6 kinase alpha-3 (Homo sapiens) (UniProt P51812)
[34] = biological target: Proto-oncogene tyrosine-protein kinase Src (Homo sapiens) (UniProt P12931)
[35] = biological target: SRSF protein kinase 3 (Homo sapiens) (UniProt Q9UPE1)
[36] = biological target: Serine/threonine-protein kinase 16 (Homo sapiens) (UniProt O75716)
[37] = biological target: Serine/threonine-protein kinase 33 (Homo sapiens) (UniProt Q9BYT3)
[38] = biological target: Serine/threonine-protein kinase 35 (Homo sapiens) (UniProt Q8TDR2)
[39] = biological target: Serine/threonine-protein kinase TNNI3K (Homo sapiens) (UniProt Q59H18)
[40] = biological target: Serine/threonine-protein kinase ULK2 (Homo sapiens) (UniProt Q8IYT8)
[41] = biological target: Mitogen-activated protein kinase kinase kinase 20 (Homo sapiens) (UniProt Q9NYL2)
[42] = biological target: 5-hydroxytryptamine receptor 1D (Homo sapiens) (UniProt P28221); conditions: Compound concentration 10.0 uM
[43] = biological target: D(1A) dopamine receptor (Homo sapiens) (UniProt P21728); conditions: Compound concentration 10.0 uM
[44] = biological target: D(1B) dopamine receptor (Homo sapiens) (UniProt P21918); conditions: Compound concentration 10.0 uM
[45] = biological target: Histamine H3 receptor (Homo sapiens) (UniProt Q9Y5N1); conditions: Compound concentration 10.0 uM
[46] = Compound concentration 100.0 nM
[47] = Compound concentration 1000.0 nM

Sequence of Cyclin-dependent kinase 16 (Homo sapiens) (Q00536 whole entry): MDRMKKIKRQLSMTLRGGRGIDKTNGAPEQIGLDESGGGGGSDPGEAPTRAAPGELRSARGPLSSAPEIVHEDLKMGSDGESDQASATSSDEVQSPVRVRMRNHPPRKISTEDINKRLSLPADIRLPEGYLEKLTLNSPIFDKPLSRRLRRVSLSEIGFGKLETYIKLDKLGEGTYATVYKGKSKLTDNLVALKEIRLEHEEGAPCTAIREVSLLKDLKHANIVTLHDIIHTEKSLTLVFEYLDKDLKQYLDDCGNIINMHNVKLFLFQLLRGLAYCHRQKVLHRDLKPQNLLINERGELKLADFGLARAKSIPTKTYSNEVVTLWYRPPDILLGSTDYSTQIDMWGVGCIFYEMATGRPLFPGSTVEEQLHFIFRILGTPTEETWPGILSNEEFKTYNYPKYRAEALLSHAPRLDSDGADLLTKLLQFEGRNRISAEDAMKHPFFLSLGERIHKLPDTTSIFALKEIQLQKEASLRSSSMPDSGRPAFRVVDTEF
Sequence of Tyrosine-protein kinase Fgr (Homo sapiens) (P09769 2-529 limits assumed): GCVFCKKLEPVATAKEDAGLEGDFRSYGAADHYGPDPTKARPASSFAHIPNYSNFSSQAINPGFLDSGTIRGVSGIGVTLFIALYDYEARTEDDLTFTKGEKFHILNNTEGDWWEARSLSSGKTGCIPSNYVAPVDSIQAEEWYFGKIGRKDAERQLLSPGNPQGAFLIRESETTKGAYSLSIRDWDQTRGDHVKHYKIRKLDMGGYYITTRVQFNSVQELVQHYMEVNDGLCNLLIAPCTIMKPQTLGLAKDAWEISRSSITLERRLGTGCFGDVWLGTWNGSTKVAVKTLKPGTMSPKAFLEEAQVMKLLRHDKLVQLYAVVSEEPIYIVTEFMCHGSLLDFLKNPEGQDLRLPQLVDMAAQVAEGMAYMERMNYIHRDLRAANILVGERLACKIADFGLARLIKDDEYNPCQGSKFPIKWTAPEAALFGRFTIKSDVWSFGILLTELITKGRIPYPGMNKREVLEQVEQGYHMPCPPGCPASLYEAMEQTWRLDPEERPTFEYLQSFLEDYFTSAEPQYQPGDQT
Sequence of Microtubule-associated serine/threonine-protein kinase 1 (Homo sapiens) (Q9Y2H9 whole entry, looked up): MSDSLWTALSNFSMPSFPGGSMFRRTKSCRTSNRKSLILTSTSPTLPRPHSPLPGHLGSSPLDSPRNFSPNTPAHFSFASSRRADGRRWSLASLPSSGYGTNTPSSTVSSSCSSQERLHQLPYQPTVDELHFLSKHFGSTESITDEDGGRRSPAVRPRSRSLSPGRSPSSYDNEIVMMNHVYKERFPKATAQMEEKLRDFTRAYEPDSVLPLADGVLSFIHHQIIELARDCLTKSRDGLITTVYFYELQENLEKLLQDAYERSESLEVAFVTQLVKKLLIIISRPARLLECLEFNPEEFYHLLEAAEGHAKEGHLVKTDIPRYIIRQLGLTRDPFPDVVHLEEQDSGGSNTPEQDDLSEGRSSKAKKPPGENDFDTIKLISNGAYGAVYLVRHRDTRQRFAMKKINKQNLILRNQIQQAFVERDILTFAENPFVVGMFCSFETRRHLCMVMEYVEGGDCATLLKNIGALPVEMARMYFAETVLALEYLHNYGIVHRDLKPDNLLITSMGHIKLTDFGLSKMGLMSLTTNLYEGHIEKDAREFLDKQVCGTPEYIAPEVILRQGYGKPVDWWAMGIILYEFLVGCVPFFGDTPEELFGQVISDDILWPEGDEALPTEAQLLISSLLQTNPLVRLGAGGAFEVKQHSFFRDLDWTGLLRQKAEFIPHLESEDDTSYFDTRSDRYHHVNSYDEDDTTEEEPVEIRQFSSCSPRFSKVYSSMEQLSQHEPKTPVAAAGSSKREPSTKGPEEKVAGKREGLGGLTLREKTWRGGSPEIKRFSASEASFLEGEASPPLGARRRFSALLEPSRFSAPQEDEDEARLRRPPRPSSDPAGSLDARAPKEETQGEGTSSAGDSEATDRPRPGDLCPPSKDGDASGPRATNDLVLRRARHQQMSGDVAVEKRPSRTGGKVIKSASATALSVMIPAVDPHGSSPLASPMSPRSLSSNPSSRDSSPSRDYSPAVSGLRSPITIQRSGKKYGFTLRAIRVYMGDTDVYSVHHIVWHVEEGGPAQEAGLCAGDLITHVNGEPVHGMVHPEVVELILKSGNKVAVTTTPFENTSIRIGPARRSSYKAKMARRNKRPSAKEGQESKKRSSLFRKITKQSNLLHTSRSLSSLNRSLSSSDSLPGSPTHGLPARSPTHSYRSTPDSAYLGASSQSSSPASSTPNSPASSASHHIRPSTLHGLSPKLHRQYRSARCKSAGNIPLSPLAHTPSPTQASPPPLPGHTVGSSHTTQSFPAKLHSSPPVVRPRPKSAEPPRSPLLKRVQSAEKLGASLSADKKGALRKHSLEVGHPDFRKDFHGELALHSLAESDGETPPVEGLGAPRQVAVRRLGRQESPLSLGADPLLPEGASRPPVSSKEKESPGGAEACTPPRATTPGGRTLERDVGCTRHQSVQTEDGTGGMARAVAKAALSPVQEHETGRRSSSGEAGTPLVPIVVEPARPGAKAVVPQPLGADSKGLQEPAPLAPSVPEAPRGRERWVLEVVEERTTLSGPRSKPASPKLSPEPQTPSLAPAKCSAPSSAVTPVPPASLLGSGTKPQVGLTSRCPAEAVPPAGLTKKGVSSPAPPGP
Sequence of Atypical kinase COQ8A, mitochondrial (Homo sapiens) (Q8NI60 163-647 limits assumed): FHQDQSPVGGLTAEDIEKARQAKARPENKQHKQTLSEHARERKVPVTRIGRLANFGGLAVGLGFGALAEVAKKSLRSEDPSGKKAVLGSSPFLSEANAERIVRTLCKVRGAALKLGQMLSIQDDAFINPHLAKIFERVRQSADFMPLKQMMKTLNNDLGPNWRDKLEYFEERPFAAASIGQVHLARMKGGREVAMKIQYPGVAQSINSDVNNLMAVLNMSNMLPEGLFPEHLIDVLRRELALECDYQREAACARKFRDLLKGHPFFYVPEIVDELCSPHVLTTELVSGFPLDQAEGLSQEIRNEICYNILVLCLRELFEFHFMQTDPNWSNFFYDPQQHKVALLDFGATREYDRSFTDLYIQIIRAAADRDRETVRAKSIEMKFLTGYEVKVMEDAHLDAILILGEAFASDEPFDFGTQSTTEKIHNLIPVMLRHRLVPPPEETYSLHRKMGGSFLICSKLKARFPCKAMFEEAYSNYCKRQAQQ
Sequence of Serine/threonine-protein kinase RIO2 (Homo sapiens) (Q9BVS4 whole entry, looked up): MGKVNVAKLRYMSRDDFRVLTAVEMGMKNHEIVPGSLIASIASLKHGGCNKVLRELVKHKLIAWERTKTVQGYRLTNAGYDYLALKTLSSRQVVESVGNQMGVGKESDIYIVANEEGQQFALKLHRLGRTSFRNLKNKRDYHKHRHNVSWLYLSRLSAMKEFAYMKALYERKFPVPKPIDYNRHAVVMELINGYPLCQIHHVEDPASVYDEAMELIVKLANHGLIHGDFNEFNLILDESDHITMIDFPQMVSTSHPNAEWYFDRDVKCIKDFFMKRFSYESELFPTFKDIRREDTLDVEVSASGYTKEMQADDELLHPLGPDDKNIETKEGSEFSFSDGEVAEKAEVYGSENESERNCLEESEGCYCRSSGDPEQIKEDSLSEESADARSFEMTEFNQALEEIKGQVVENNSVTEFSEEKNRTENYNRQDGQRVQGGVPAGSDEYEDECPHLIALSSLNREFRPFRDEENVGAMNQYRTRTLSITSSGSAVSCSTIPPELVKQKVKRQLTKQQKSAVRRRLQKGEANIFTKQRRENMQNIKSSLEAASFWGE
Sequence of Mitogen-activated protein kinase 3 (Homo sapiens) (P27361 whole entry): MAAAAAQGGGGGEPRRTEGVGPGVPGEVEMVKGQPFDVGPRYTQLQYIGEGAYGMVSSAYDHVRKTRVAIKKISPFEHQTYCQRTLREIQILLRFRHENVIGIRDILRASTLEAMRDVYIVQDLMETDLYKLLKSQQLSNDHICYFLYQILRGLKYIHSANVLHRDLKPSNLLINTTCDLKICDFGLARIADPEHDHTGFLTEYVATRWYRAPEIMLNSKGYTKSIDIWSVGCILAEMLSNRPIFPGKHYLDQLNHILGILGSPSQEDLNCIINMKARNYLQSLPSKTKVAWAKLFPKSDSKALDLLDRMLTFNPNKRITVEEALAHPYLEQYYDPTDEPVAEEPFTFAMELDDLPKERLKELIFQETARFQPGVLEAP
Sequence of Aurora kinase A (Homo sapiens) (O14965 whole entry): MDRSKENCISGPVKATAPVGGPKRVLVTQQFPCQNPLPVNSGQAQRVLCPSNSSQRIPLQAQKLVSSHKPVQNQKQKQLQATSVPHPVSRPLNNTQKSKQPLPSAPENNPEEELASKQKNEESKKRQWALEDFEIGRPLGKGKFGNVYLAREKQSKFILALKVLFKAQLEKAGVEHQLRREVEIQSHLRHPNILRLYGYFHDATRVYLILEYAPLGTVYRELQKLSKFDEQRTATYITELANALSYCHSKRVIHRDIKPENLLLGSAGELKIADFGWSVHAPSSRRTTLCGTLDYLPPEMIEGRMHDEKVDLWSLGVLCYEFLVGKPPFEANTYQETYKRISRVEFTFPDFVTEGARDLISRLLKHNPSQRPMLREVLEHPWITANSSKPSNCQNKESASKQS
Sequence of Serine/threonine-protein kinase 16 (Homo sapiens) (O75716 whole entry): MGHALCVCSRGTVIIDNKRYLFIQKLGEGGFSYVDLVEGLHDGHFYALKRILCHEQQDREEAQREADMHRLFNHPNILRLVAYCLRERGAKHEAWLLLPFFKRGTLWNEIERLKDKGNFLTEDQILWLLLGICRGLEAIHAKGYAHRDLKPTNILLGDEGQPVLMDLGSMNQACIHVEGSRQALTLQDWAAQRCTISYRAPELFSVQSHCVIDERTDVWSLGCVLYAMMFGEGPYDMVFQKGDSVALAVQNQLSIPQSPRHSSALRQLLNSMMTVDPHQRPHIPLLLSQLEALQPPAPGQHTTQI
Sequence of Cyclin-dependent kinase 4 (Homo sapiens) (P11802 whole entry, the tested form may be a part): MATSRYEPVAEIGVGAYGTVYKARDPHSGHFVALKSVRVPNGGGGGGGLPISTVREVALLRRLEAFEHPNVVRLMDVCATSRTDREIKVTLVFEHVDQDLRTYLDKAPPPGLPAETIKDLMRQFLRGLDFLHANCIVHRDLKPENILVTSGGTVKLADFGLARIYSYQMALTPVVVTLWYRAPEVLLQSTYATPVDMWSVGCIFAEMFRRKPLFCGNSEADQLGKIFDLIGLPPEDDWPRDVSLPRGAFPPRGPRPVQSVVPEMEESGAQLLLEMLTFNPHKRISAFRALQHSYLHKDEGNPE

C[C@@H](NC(=O)Nc1cc2[nH]ncc2c(CO)n1)c1ccccc1 [ERKi]
residual activity [1, 46]: 52.5%
residual activity [2, 46]: 89.6%
residual activity [3, 46]: 82%
residual activity [4, 46]: 70.3%
residual activity [5, 46]: 100%
residual activity [6, 46]: 100%
residual activity [7, 46]: 45.7%
residual activity [8, 46]: 97.2%
residual activity [9, 46]: 86.6%
residual activity [10, 46]: 100%
residual activity [11, 46]: 89.8%
residual activity [12, 46]: 0.2%
residual activity [13, 46]: 100%
residual activity [14, 46]: 91.6%
residual activity [15, 46]: 95.2%
residual activity [16, 46]: 100%
residual activity [17, 46]: 93.7%
residual activity [18, 46]: 82.7%
residual activity [19, 46]: 93.9%
residual activity [20, 46]: 89.1%
residual activity [21, 46]: 72.3%
residual activity [22, 46]: 90.6%
residual activity [23, 46]: 82.5%
residual activity [24, 46]: 75.2%
residual activity [25, 46]: 79.1%
residual activity [26, 46]: 82.2%
residual activity [27, 46]: 80.6%
residual activity [28, 46]: 75.7%
residual activity [29, 46]: 96.4%
residual activity [30, 46]: 84.6%
residual activity [31, 46]: 100%
residual activity [32, 46]: 89.9%
residual activity [33, 46]: 85.4%
residual activity [34, 46]: 94.6%
residual activity [35, 46]: 100%
residual activity [36, 46]: 60.3%
residual activity [37, 46]: 100%
residual activity [38, 46]: 91.1%
residual activity [39, 46]: 94.6%
residual activity [40, 46]: 79.7%
residual activity [41, 46]: 100%
inhibition [42]: 1.59%
inhibition [43]: -3.5%
inhibition [44]: 21.1%
inhibition [45]: 7.46%

C[C@H](NC(=O)Nc1cc2[nH]ncc2c(CO)n1)c1ccccn1 [ERKi-NC]
residual activity [1, 47]: 100%
residual activity [2, 47]: 96.3%
residual activity [3, 47]: 100%
residual activity [4, 47]: 100%
residual activity [5, 47]: 92%
residual activity [6, 47]: 95.4%
residual activity [7, 47]: 79%
residual activity [8, 47]: 71.3%
residual activity [9, 47]: 74.2%
residual activity [10, 47]: 74.7%
residual activity [11, 47]: 100%
residual activity [12, 47]: 17%
residual activity [13, 47]: 100%
residual activity [14, 47]: 100%
residual activity [15, 47]: 70.9%
residual activity [16, 47]: 85.2%
residual activity [17, 47]: 100%
residual activity [18, 47]: 88.8%
residual activity [19, 47]: 100%
residual activity [20, 47]: 17.6%
residual activity [21, 47]: 100%
residual activity [22, 47]: 82.6%
residual activity [23, 47]: 67.6%
residual activity [24, 47]: 81.4%
residual activity [25, 47]: 100%
residual activity [26, 47]: 100%
residual activity [27, 47]: 97.4%
residual activity [28, 47]: 34.6%
residual activity [29, 47]: 100%
residual activity [30, 47]: 100%
residual activity [31, 47]: 85%
residual activity [32, 47]: 90.3%
residual activity [33, 47]: 79.5%
residual activity [34, 47]: 100%
residual activity [35, 47]: 100%
residual activity [36, 47]: 100%
residual activity [37, 47]: 100%
residual activity [38, 47]: 100%
residual activity [39, 47]: 100%
residual activity [40, 47]: 100%
residual activity [41, 47]: 74.7%
inhibition [42]: 39.9%
inhibition [43]: 4.28%
inhibition [44]: 7.55%
inhibition [45]: 21.1%

Reference: ChEMBL document CHEMBL4507286 (2021)
